In patent US12152038B2, “Vasopressin receptor antagonists and products and methods related thereto” (Neumora Therapeutics, Inc., priority 2017, dated 2024):

Experiments:
[1] = Wild-type MDCK permeability and efflux assay (Papp, efflux ratio); type: in vitro ADME; details: dog, pH 7.4, wild-type MDCK cells
Experimental: The MDR1-MDCK effective efflux assay was performed as described in the BioFocus Standard Operating Procedure, ADME-SOP-56. Both wild-type (WT) and MDR1-MDCK cells (Solvo Biotechnology) were seeded onto 24-well Transwell plates at 2.35×10^5 cells per well and used in confluent monolayers after a 3 day culture at 37° C. under 5% CO2. For both cell types, test and control compounds (propranolol, vinblastine) were added (10 μM, 0.1% DMSO final, n=2) to donor compartments of the Transwell plate assembly in assay buffer (Hanks balanced salt solution supplemented with 25 mM HEPES, adjusted to pH 7.4) for both apical to basolateral (A>B) and basolateral to apical (B>A) measurements. Incubations were performed at 37° C., with samples removed from both donor and acceptor chambers at T=0 and 1 hour and compound analysed by mass spectrometry (LC-MS/MS) including an analytical internal standard.
Apparent permeability (Papp) values were determined from the relationship: Papp=[CompoundAcceptor T=end]×V Acceptor/([Compound Donor T=0]×V Donor)/incubation time×V Donor/Area×60×10^−6 cm/s
In this equation, V is the volume of each Transwell compartment (apical 125 μL, basolateral 600 μL), and concentrations are the relative MS responses for compound (normalized to internal standard) in the donor chamber before incubation and acceptor chamber at the end of the incubation, and Area is the area of cells exposed for drug transfer (0.33 cm^2).
Efflux ratios (Papp B>A/Papp A>B) were calculated for each compound from the mean Papp values in each direction for both wild-type and MDR1-MDCK cells.
In order to confirm the involvement of MDR1 in any efflux seen, an “effective efflux ratio” (EER) was calculated by comparing compound efflux ratios (ER) in the two cell types by the following equation: EER=ER(MDR1-MDCK)/ER(wild-type MDCK)
This ratio illustrates the effect of the over-expressed MDR1 normalised for the background movement of compound through the wild-type cells.
Lucifer Yellow (LY) was added to the apical buffer in all wells to assess viability of the cell layer. […] Recoveries<50% indicates compound solubility, stability or binding issues, thereby reducing the reliability of a result.
The inherent ability of a potential drug molecule to penetrate the blood brain barrier and avoid efflux by transporters expressed in the brain, can be roughly correlated with the Papp(A-B) and the efflux ratio (as defined above), respectively. A potential drug molecule with an apparent permeability<7 (10^−6 cm/sec) has low permeability (+), >7 (10^−6 cm/sec) but <10 (10^−6 cm/sec) has moderate permeability (++), >10 (10^−6 cm/sec) but <20 (10^−6 cm/sec) has good permeability (+++), and >20 (10^−6 cm/sec) is highly permeable (++++). High permeability in the WT and MDCK II cell permeability assay increases the probability of blood brain barrier penetration and access to the CNS. A potential drug molecule in the above assay system with an efflux ratio or effective efflux ratio of <1 has low probability of being an efflux substrate (++++), >1 but <2 has moderate probability of being an efflux substrate (+++), >2 but <3 has has an increased probability of being an efflux substrate (++), and >3 has a high probability of being an efflux substrate (+). If a potential drug molecule is an efflux substrate, the molecule will have a low probability of reaching exposures in the brain (site of action) that will result in efficacious levels of receptor occupancy.

Male CD-1 mice = assay: AVP induced scratching, digging and grooming behavior in mouse; type: in vivo; details: po, AVP i.c.v., 15 minutes observation
Excerpt: Administration of Arginine-Vasopressin (AVP) intracerebroventricularly (i.c.v.) elicits characteristic scratching, digging and grooming behavior in mice that can be measured readily and is sensitive to blockade with vasopressin antagonists (Meisenberg, Ann N Y Acad Sci. 525:257-69, 1988; Bleickardt et. al., Psychopharmacology (Berl). 202(4):711-8, 2009).
Male CD-1 mice (Charles River Germany) weighing 22-25 g upon the study in-life were used for this study. Animals were housed in groups of 4-5 per cage in standard temperature (22±1° C.) and light-controlled environment (lights on from 7 am to 8 pm), with ad libitum access to food and water. Prior to commencing any procedures to the mice, they were allowed to habituate in the vivarium for a minimum of 7 days. Anesthesia was induced in a plexiglass chamber for 2-3 min with 5% isoflurane and maintained through a snout mask with 1-2% isoflurane thereafter. A homeothermic blanket system with a rectal probe was used to monitor and maintain the animal's body temperature at 37.0° C.±1.5° C. during the operation. Anesthetized mice were placed in a stereotaxic apparatus and skin between the ears shaved and disinfected with povidone-iodine solution (Betadine). A 10-μl Hamilton syringe with 28-gauge needle was used for the i.c.v. injections. All animals receive identical AVP injections (3.689 μM) or sterile saline (0.9% sodium chloride solution) into the right lateral ventricle at the following coordinates: AP=+0.5 mm; ML=+1.0 mm; DV=−2.5 mm (approximately from bregma). The actual coordinates were calculated by the distance from the point in midline between the eyes and no skin incision was made. […]
Mice were observed and video-recorded for 15 minutes following AVP/saline administration and behaviors were measured (in seconds) and a cumulative time was calculated. […] Using this assay, balovaptan (100 and 300 mg/kg, po), JNJ-17308616 (30, 100 mg/kg, po) and Compound No. 1-83B (100, 300, 500 mg/kg, po) were evaluated for antagonist activity to AVP-induced scratching behaviors.

Papp A→B at 1 h, 10 μM ([1]; A->B): > 20 ×10⁻⁶ cm/s
efflux ratio at 1 h, 10 μM ([1]; Papp B>A/Papp A>B, read-out: ER WT (Efflux Ratio)): < 1
Compound: CC1COc2cc(Cl)ccc2N1C(=O)N1CC2(C1)CN(c1ncccn1)C2 (single isomer, unassigned) [1-83-B, (7-chloro-3-methyl-2,3-dihydro-4H-benzo[b][1,4]oxazin-4-yl)(6-(pyrimidin-2-yl)-2,6-diazaspiro[3.3]heptan-2-yl)methanone]
antagonist activity to AVP-induced scratching behaviors (Male CD-1 mice; 300 mg/kg): effective
antagonist activity to AVP-induced scratching behaviors (Male CD-1 mice; 500 mg/kg): effective
